Patent publication US11643438B2, “Antimicrobial peptides and methods of use” (priority 2018, dated 2023)
Values after ≈ are worked out from the molar mass of the structure shown. “Also recorded” adds a separate entry of the source. Read-outs that look alike come from different tables or passages of the source. Each block holds one compound with its values, some of them ahead of it.

What was measured:
Fusarium oxysporum = assay: MIC/MFC against phytopathogenic (endophytic) fungi
Mycosphaerella populorum = assay: MIC/MFC against phytopathogenic (endophytic) fungi; conditions: Sphaerulina musiva
P. glomerata = assay: MIC/MFC against phytopathogenic (endophytic) fungi
Fusarium tricinctum = assay: MIC/MFC against phytopathogenic (endophytic) fungi
Alternaria tennuissiema = assay: MIC/MFC against phytopathogenic (endophytic) fungi
Nodulosporium spp. = assay: MIC/MFC against phytopathogenic (endophytic) fungi
Alternaria brassicicola = assay: MIC/MFC against phytopathogenic (endophytic) fungi
Alternaria brassicae = assay: MIC/MFC against phytopathogenic (endophytic) fungi
Candida albicans SC5314 [1] = assay: Ex vivo model of fungal keratitis (porcine cornea); conditions: for antifungal activity (fungal growth/infection), in words: 0.1% 118A, 2% fluconazole, 5% natamycin, FIG. 11; for CFU: 118A 0.1% (1 mg/ml), natamycin 5% (50 mg/ml), fluconazole 2% (20 mg/ml)
C. albicans SC5314 Flu^R = assay: Ex vivo model of fungal keratitis (porcine cornea); set-up: species or system Candida albicans; conditions: C. albicans SC5314 Flu^R; 118A 0.1% (1 mg/ml), natamycin 5% (50 mg/ml), fluconazole 2% (20 mg/ml)
[2] = tested on: Aspergillus fumigatus NRRL5109; assay: Ex vivo model of fungal keratitis (porcine cornea); conditions: for antifungal activity (fungal growth/infection), in words: Aspergillus fumigatus NRRL 5109, 0.1% 118A, 2% fluconazole, 5% natamycin, FIG. 13; for CFU: Aspergillus fumigatus NRRL5109, 118A 0.1% (1 mg/ml), natamycin 5% (50 mg/ml), fluconazole 2% (20 mg/ml)
[3] = tested on: Candida krusei ATCC 6258 (Y-7179); assay: Antifungal MIC80/MFC assay, fungal pathogen panel; conditions: Pichia kudriavzevii, ATCC6258
[4] = tested on: Paecilomyces lilacinus 165E10; assay: Antifungal MIC80/MFC assay, fungal pathogen panel; conditions: Purpureocillium lilacinum, 165E10
[5] = tested on: Candida albicans ATCC 10231; assay: Antifungal MIC80/MFC assay, fungal pathogen panel; conditions: ATCC10231
[6] = tested on: Candida tropicalis ATCC750 (Y-12699); assay: Antifungal MIC80/MFC assay, fungal pathogen panel; conditions: Candida tropicalis, ATCC750
[7] = tested on: Aspergillus flavus NRRL485; assay: Antifungal MIC80/MFC assay, fungal pathogen panel
Fusarium solani 243G2 = assay: Antifungal MIC80/MFC assay, fungal pathogen panel
[8] = tested on: Hamigera insecticola NRRL35442; assay: Antifungal MIC80/MFC assay, fungal pathogen panel
[9] = tested on: Candida parapsilosis ATCC 22019 (Y-12969); assay: Antifungal MIC80/MFC assay, fungal pathogen panel; conditions: Lodderomyces parapsilosis, ATCC22019
[10] = tested on: Curvularia lunata NRRL6409; assay: Antifungal MIC80/MFC assay, fungal pathogen panel
[11] = tested on: Mucor circinelloides 235C7; assay: Antifungal MIC80/MFC assay, fungal pathogen panel
[12] = tested on: Aspergillus fumigatus NRRL6113; assay: Antifungal MIC80/MFC assay, fungal pathogen panel
Candida albicans SC5314 [13] = assay: Antifungal MIC80/MFC assay, fungal pathogen panel
[14] = tested on: Aspergillus fumigatus NRRL5109; assay: Antifungal MIC80/MFC assay, fungal pathogen panel
[15] = tested on: Aspergillus terreus 191A6; assay: Antifungal MIC80/MFC assay, fungal pathogen panel
[16] = tested on: Cryptococcus neoformans H99; assay: Antifungal MIC80/MFC assay, fungal pathogen panel
[17] = tested on: Aspergillus fumigatus MYA 3627; assay: Antifungal MIC80/MFC assay, fungal pathogen panel; conditions: MYA3627
[18] = tested on: Aspergillus niger FGSC A732; assay: Antifungal MIC80/MFC assay, fungal pathogen panel; conditions: Aspergillus niger, FGSCA732
[19] = tested on: Rhizopus oryzae FGSC 9543; assay: Antifungal MIC80/MFC assay, fungal pathogen panel; conditions: Rhizopus arrhizus, FGSC9543

Structure (SMILES): N#Cc1c[nH]cc1-c1cccc2c1OC(F)(F)O2 [Fludioxonil, fludioxonil]
- MFC (Fusarium oxysporum): > 20 µM
- MIC (Fusarium oxysporum): 5 µM (≈ 1.24 µg/mL)
- MFC (Mycosphaerella populorum): > 20 µM
- MIC (Mycosphaerella populorum): 1.25 µM (≈ 0.31 µg/mL)
- MFC (P. glomerata): > 20 µM
- MIC (P. glomerata): > 20 µM
- MIC (P. glomerata; P. glomerata, […]): no activity in the range tested
- MFC (Fusarium tricinctum): > 20 µM
- MIC (Fusarium tricinctum): 1.25 µM (≈ 0.31 µg/mL)
- MFC (Alternaria tennuissiema): 1.25 µM (≈ 0.31 µg/mL)
- MIC (Alternaria tennuissiema): 1.25 µM (≈ 0.31 µg/mL)
- MFC (Nodulosporium spp.): > 20 µM
- MIC (Nodulosporium spp.): 0.625 µM (≈ 0.155 µg/mL)
- MFC (Alternaria brassicicola): > 20 µM
- MIC (Alternaria brassicicola): 1.25 µM (≈ 0.31 µg/mL)
- MFC (Alternaria brassicae): 2.5 µM (≈ 0.62 µg/mL)
- MIC (Alternaria brassicae): 0.625 µM (≈ 0.155 µg/mL)

Structure (SMILES): OC(Cn1cncn1)(Cn1cncn1)c1ccc(F)cc1F [Fluconazole, fluconazole]
- antifungal activity (fungal growth/infection), in words (Candida albicans SC5314 [1]): reduced the infection
- CFU (Candida albicans SC5314 [1]): 13.7 ± 19.3 CFU
- CFU (C. albicans SC5314 Flu^R): 2.2 ± 0.9 × 10^5 CFU
- antifungal activity (fungal growth/infection), in words [2]: did not inhibit the growth
- antifungal activity (fungal growth/infection), in words ([2]; listed as fluconazole): unable to fully inhibit the fungus
- CFU [2]: 2.0 ± 1.0 × 10^4 CFU

- MIC80 [3]: 0.6 µM (≈ 0.423 µg/mL)
- MIC80 [4]: 2.5 µM (≈ 1.76 µg/mL)
- MIC80 [5]: 0.06 µM (≈ 0.0423 µg/mL)
- MIC80 [6]: 0.6 µM (≈ 0.423 µg/mL)
- MIC80 [7]: 0.15 µM (≈ 0.106 µg/mL)
- MIC80 (Fusarium solani 243G2): 2.5 µM (≈ 1.76 µg/mL)
- MIC80 [9]: 0.6 µM (≈ 0.423 µg/mL)
- MIC80 [10]: 2.5 µM (≈ 1.76 µg/mL)
- MIC80 [11]: 10 µM (≈ 7.06 µg/mL)
- MIC80 [12]: 1.25 µM (≈ 0.882 µg/mL)
- MIC80 (Candida albicans SC5314 [13]): 0.125 µM (≈ 0.0882 µg/mL)
- MIC80 [14]: 1.25 µM (≈ 0.882 µg/mL)
- MIC80 [15]: 0.6 µM (≈ 0.423 µg/mL)
- MIC80 [16]: 0.6 µM (≈ 0.423 µg/mL)
- MIC80 [17]: 5 µM (≈ 3.53 µg/mL)
- MIC80 [18]: 2.5 µM (≈ 1.76 µg/mL)
- MIC80 [19]: 0.6 µM (≈ 0.423 µg/mL)
Structure (SMILES): CCC(C)n1ncn(-c2ccc(N3CCN(c4ccc(OCC5COC(Cn6cncn6)(c6ccc(Cl)cc6Cl)O5)cc4)CC3)cc2)c1=O (stereo not shown) [ITC, itraconazole]
- MFC [3]: 2.5 µM (≈ 1.76 µg/mL)
- MFC [4]: 1.25 µM (≈ 0.882 µg/mL)
- MFC [5]: > 10 µM
- MFC [6]: > 10 µM
- MFC [7]: 0.6 µM (≈ 0.423 µg/mL)
- MFC (Fusarium solani 243G2): 5 µM (≈ 3.53 µg/mL)
- MFC [8]: 1.25 µM (≈ 0.882 µg/mL)
- MIC80 [8]: 0.3 µM (≈ 0.212 µg/mL)
- MFC [9]: 5 µM (≈ 3.53 µg/mL)
- MFC [10]: 5 µM (≈ 3.53 µg/mL)
- MFC [11]: > 10 µM
- MFC [12]: > 10 µM
- MFC (Candida albicans SC5314 [13]): > 10 µM
- MFC [14]: 10 µM (≈ 7.06 µg/mL)
- MFC [15]: 2.5 µM (≈ 1.76 µg/mL)
- MFC [16]: > 10 µM
- MFC [17]: > 10 µM
- MFC [18]: 5 µM (≈ 3.53 µg/mL)
- MFC [19]: 0.6 µM (≈ 0.423 µg/mL)

Structure (SMILES): C[C@@H]1C/C=C/C=C/C=C/C=C/[C@H](O[C@@H]2O[C@H](C)[C@@H](O)[C@H](N)[C@@H]2O)C[C@@H]2O[C@](O)(C[C@@H](O)C[C@H]3O[C@@H]3/C=C/C(=O)O1)C[C@H](O)[C@H]2C(=O)O [Natamycin, natamycin]
- antifungal activity (fungal growth/infection), in words (Candida albicans SC5314 [1]): inhibited the growth; also recorded: reduced the infection
- CFU (Candida albicans SC5314 [1]): 0 CFU
- CFU (C. albicans SC5314 Flu^R): 0 CFU
- antifungal activity (fungal growth/infection), in words [2]: inhibited the growth; also recorded: reduced the fungal burden
- CFU [2]: 0 CFU

- MIC80 [3]: 0.15 µM (≈ 0.164 µg/mL)
- MIC80 [4]: > 10 µM
- MIC80 [5]: 0.03 µM (≈ 0.0328 µg/mL)
- MIC80 [6]: 0.03 µM (≈ 0.0328 µg/mL)
- MIC80 [7]: > 10 µM
- MIC80 (Fusarium solani 243G2): 0.15 µM (≈ 0.164 µg/mL)
- MIC80 [9]: 0.3 µM (≈ 0.328 µg/mL)
- MIC80 [10]: 5 µM (≈ 5.47 µg/mL)
- MIC80 [11]: > 10 µM
- MIC80 [12]: > 10 µM
- MIC80 (Candida albicans SC5314 [13]): 0.03 µM (≈ 0.0328 µg/mL)
- MIC80 [14]: > 10 µM
- MIC80 [15]: 0.125 µM (≈ 0.137 µg/mL)
- MIC80 [16]: > 10 µM
- MIC80 [17]: 0.07 µM (≈ 0.0765 µg/mL)
- MIC80 [18]: 0.06 µM (≈ 0.0656 µg/mL)
- MIC80 [19]: > 10 µM
Structure (SMILES): CC[C@H](C)C[C@H](C)CCCCCCCCC(=O)N[C@H]1C[C@@H](O)[C@@H](NCCN)NC(=O)[C@@H]2[C@@H](O)CCN2C(=O)[C@H]([C@H](O)CCN)NC(=O)[C@H]([C@H](O)[C@@H](O)c2ccc(O)cc2)NC(=O)[C@@H]2C[C@@H](O)CN2C(=O)[C@H]([C@@H](C)O)NC1=O [CASP, caspofungin]
- MFC [3]: 0.3 µM (≈ 0.328 µg/mL)
- MFC [4]: > 10 µM
- MFC [5]: 5 µM (≈ 5.47 µg/mL)
- MFC [6]: 0.15 µM (≈ 0.164 µg/mL)
- MFC [7]: > 10 µM
- MFC (Fusarium solani 243G2): > 10 µM
- MFC [8]: > 10 µM
- MIC80 [8]: 0.06 µM (≈ 0.0656 µg/mL)
- MFC [9]: 1.25 µM (≈ 1.37 µg/mL)
- MFC [10]: 5 µM (≈ 5.47 µg/mL)
- MFC [11]: > 10 µM
- MFC [12]: > 10 µM
- MFC (Candida albicans SC5314 [13]): 0.625 µM (≈ 0.683 µg/mL)
- MFC [14]: > 10 µM
- MFC [15]: > 10 µM
- MFC [16]: > 10 µM
- MFC [17]: > 10 µM
- MFC [18]: > 10 µM
- MFC [19]: > 10 µM
